Here are results for 1 molecule from US20020156016A1, “Control of cell growth by altering cell membrane potentials” (priority 2001, published 2002).

Holding throughout (assay type): cell-based, human
Experiment [1] relates to Chang cells. Briefly: Cell PD determination (TMRE fluorescence). The note with it: non-transfected Chang cells, 50 μM muscimol, 48 hours. The procedure:
(§1) A Leica DM IRB fluorescence microscope equipped with a PDMI-2 Open perfusion Micro-incubator (Harvard Apparatus, Saint-Laurent, Quebec) was used to measure PDs as described by Loew (Loew, 1998, Cell Biology: A Laboratory Handbook). The incubating temperature was 37° C. Twenty four hour cultured healthy, human hepatocytes and malignant hepatocytes were washed with NB buffer (130 mM NaCl, 5.5 mM KCl, 1.8 mM CaCl2, 1.0 mM MgCl2, 25 mM glucose and 20 mM HEPES buffer adjusted to pH 7.4) three times and then incubated for 10 min with NTB buffer (100 nM tetramethylrhodamine ethyl ester (TMRE) in NB buffer). After obtaining photographs of the fluorescent cells, they were washed with KB buffer (130 mM KCl, 5.5 mM NaCl, 1.8 mM CaCl2, 1.0 mM MgCl2, 25 mM glucose and 20 mM HEPES buffer adjusted to pH 7.4) three times and incubated for 10 min with DTB buffer (100 nM TMRE and 1 μM valinomysin in KB buffer). Photographs were then obtained of the depolarized cells. Fluorescence within the cell was designated intracellular fluorescence (Fin) and fluorescence outside the cell as extracellular fluorescence (Fout). To calculate PDs the Nernst equation was used.
(§2) PD=−(RT/ZF)λn[Fin dFout)/(FoutdFin),
where PD is membrane potential, Z is the charge of the permeable ion, F is Faraday's constant, R is the ideal gas constant and T is the absolute temperature. […]

Experiment [2] relates to Chang cells transfected with vector alone. Briefly: Cell PD determination (TMRE fluorescence) after muscimol exposure. The note with it: 50 μM muscimol, 48 hours. The protocol: as §1, §2
(§3) where PD is membrane potential, Z is the charge of the permeable ion, F is Faraday's constant, R is the ideal gas constant and T is the absolute temperature.
(§4) To determine whether further hyperpolarization could be achieved in Chang cells transfected with GABAA-β3 receptor cDNA, these cells together with non-transfected Chang cells and Chang cells transfected with vector alone were exposed to 50 μM muscimol, a specific GABAA receptor agonist for 48 hours.

Experiment [3] deals with Chang cells transfected with GABAA-β3 receptor cDNA. The experiment is described as above. The protocol:
as §1, §2, §3, §4

Experiment [4] relates to Chang cells transfected with vector alone. Briefly: Proliferative activity after varying concentrations of muscimol. The note with it: muscimol 0-100 μM, FIG. 12. The procedure:
(§5) [^3H]-thymidine incorporation was determined as described by Luk (Luk, 1986, Gastroenterology 90: 1261-1267). 5×10^4 cells were seeded into 6-well plates. After two days of culture to allow attachment to plate bottoms, cells were incubated with 1 μCi [^3H]-thymidine for 2 hours at 37° C. [^3H]-thymidine incorporated into cellular DNA was precipitated by the addition of 10% trichloroacetic acid (TCA) for 15 min at room temperature. Cells were rinsed and resolublilized in a 0.3 M NaOH and 1% SDS solution then assayed for radioactivity in a […].
(§6) Bromodeoxyuridine (BrdUrd) incorporation was determined by seeding 5×10^3 cells into 96 well plates. At subconfluence, cells were incubated with serum-free DMEM. Twenty-four hours later, the media was switched to DMEM containing BrdUrd for 2 hours. Incoroporation of BrdUrd was determined using a 5-Bromo-2′-deoxyuridine Labeling and Detection Kit III (Roche Diagnostics, Mississauga, Ontario, Canada) according to the manufacturer's instructions. Absorbance at 450-490 nm was measured using a microplate reader (Molecular Devices, Menlo Park, Calif., USA).
(§7) WST-1 determinations were performed using a commercially available kit (Boehringer Mannheim Canada, Laval, Quebec, Canada). Briefly, 1×10^4 cells were seeded into 96 well plates. After two days of culture one tenth the volume of 4-[3-(4-lodophenyl)-2-(4-nitrophenyl)-2H-5-tetrazolio]-1,3-benzene disulfonate (WST-1, Boehringer Mannheim, Laval, PQ) was added to each well, and the cells incubated with WST-1 for 4 h in 37° C. Asborbance at A405-A650 was determined by a microplate reader (Molecular Devices, Menlo Park, Calif., USA).
(§8) To determine whether the addition of muscimol and/or other GABAA receptor agonists might have therapeutic value in inhibiting the growth of malignant hepatocytes with restored GABAAβ3 receptor mRNA expression, proliferative activity was documented in Chang cells transfected with GABAA-β3 receptor cDNA or vector alone following exposure to varying concentrations of muscimol (0-100 μM).

Experiment [5] has as its system Chang cells transfected with GABAA-β3 receptor cDNA. The description is as above. The note with it: muscimol 0-100 μM, FIG. 12. The procedure:
as §5, §6, §7, §8

The structures appear in SMILES notation.

Consider `NCc1cc(=O)[nH]o1` [muscimol], for which the “effect on PDs” value in experiment [1] and in experiment [2] was “little or no effect” throughout. For the same molecule, the “increase of PDs after muscimol” value in experiment [3] (50 μM muscimol, 48 hours) is on record as “approximately 40%”. Besides, the PD post-muscimol in experiment [3] (50 μM muscimol, 48 hours, pre-muscimol −12.0±0.9) is recorded as −16.4±0.8. In experiment [3] (Muscimol 50 μM, FIG. 11), the “effect on membrane potentials (PDs), in words” value is “became more polarized”. The figures for the proliferative activity result in experiment [4], in experiment [5] and in experiment [5] (listed as Muscimol) were “remained essentially unaltered”, “dose dependent decrease” and “significantly decreased in a dose dependent fashion”, respectively.
